# Ends that are not written are not given here.
# What was measured:
# [1] = tested on: hESCs; experiment: Embryoid body differentiation after long-term culture, germ layer marker staining; format: cell-based, human; details: 3 months on surface, then 2 weeks EB suspension culture
# Excerpt: Images were collected with a Hamamatsu (Bridgewater, N.J.) Digital Camera mounted onto an Olympus IX81 Microscope. Primary antibodies used were as follows: Oct-4 (1:400; R&D Systems; Minneapolis, Minn.), SSEA-4 (1:400; Santa Cruz Biotechnology; Santa Cruz, Calif.), β-III tubulin (1:3000; R&D Systems), nestin (1:3000), α-fetoprotein (1:250; Sigma), FoxA2 (1:100; R&D Systems), α-smooth muscle actin (1:1000; Sigma), and fatty acid binding protein 4 (1:250; R&D Systems). Cells were fixed with PBS containing 4% formaldehyde and 0.15% picric acid for 20 minutes at 37° C. and then permeabilized and blocked with PBS containing 0.1% Triton X-100 and 0.1% bovine serum albumin (BSA). All antibodies were incubated in blocking buffer overnight at 4° C., except for the antibodies against β-III tubulin, nestin and α-smooth muscle actin, which were incubated for 1 hour at room temperature. Secondary staining was performed with Alexa Fluor® 488- and/or 594-conjugated antibodies (1:1000; Invitrogen) diluted in blocking buffer and incubated for 1 hour at room temperature. Cells were counterstained with 4′,6-diamidino-2-phenylindole, dilactate (DAPI; Invitrogen). Image overlays were generated using ImageJ (ImageJ is a public domain Java image processing program available on the World Wide Web). Peptide array mosaics were generated using the AnalySIS Acquisition Software (Olympus).
# [2] = tested on: H9 hESCs
# [3] = tested on: human ESCs (H9); experiment: Cell adhesion (CellTiter-Glo) with soluble heparin or chondroitinase ABC; format: cell-based; details: 1 hour
# Protocol: To determine the effect of a soluble GAG on hESC binding to GBPs, hESCs were plated onto Matrigel-coated surfaces, vitronectin-coated surfaces, or surfaces presenting the heparin-binding peptide […] (SEQ ID NO: 1) in the presence or absence of soluble heparin (0.5 mg/mL). After 1 hour, the surfaces were washed and the cells lysed. The cell lysates were used to determine approximate cell numbers using Cell Titer Glo (Promega). The ratio of the mean luminescence of the cell lysates of cells plated in the presence of heparin versus those without heparin was expressed as percent cell binding for each surface.
# To determine if glycosaminoglycans (GAGs) are required for GBP binding, human ESCs (H9) cultured on Matrigel were dissociated using an enzyme-free, Hanks'-based cell dissociation buffer (Sigma) for 10-15 minutes. Cells were resuspended in DMEM/F12 (Gibco), or DMEM/F12 supplemented with 2 units/mL chondroitinase ABC (Sigma), or 500 ug/mL heparin (Sigma). Cells treated with the GAG-degrading enzymes were incubated for 1 hour in suspension at 37° C. Cell suspensions were seeded onto Matrigel-coated surfaces, recombinant vitronectin-coated surfaces (10 μg/mL, R&D Systems), or SAMs presenting the peptide […] (SEQ ID NO: 1) at a 5% surface density. After 1 hour, surfaces were washed 3 times with PBS and the cells were lysed with M-PER buffer (Thermo Fisher Scientific, Inc., Rockford, Ill.). The cell lysate was mixed with CellTiter-Glo (Promega) to determine the number of viable cells in culture based on the presence of ATP. The luminescence was measured on 20/20^n luminometer (Turner Biosystems, Inc., Sunnyvale Calif.). • Cell Growth: […]
# [4] = tested on: hES cells (H9 and H13) and vector-free iPS cells (DF19-9); experiment: Cell growth over two passages (Cell Counting Kit-8); format: cell-based, human
# Protocol: hESCs (H9) were cultured on Matrigel, vitronectin, polylysine, […] (SEQ ID NO: 1), or KGRGDS (SEQ ID NO: 5) over two passages in mTeSR media supplemented with 5 μm ROCK inhibitor. Cell counts were calculated at each time point using Cell Counting Kit-8 (Dojindo Molecular Technologies, Inc., Rockville, Md.).
# [5] = tested on: pluripotent stem cells; experiment: Number of cell divisions by fluorescent cell staining; format: cell-based, human; details: listed as GKKQRFRHRNKG
sequence,measurement,setting,value
GKKQRFRHRNRKG (not fully specified (C-terminus); listed as Homo sapiens),ectoderm derivatives: staining for β-III tubulin and nestin,[1],stained positive
same,endoderm derivatives: staining for α-fetoprotein and FoxA2,[1],stained positive
same,mesoderm derivatives: staining for fatty acid binding protein 4 and α-smooth muscle actin,[1],stained positive
same,karyotype by standard G banding,[2],karyotypically normal
same,adhesion of cells treated with chondroitinase ABC,"[3]; 2 units/mL chondroitinase ABC, 5% surface density",decreased adhesion
same,hESC binding in the presence of soluble heparin,[3]; soluble heparin 0.5 mg/mL,abrogate hESC binding
same,plating efficiency after 24 hours,[4]; 24 hours,equivalent
same,cell numbers after each passage,"[4]; two passages, mTeSR with ROCK inhibitor",Increased cell numbers
same,number of cell divisions,[5],superior to polylysine-coated surfaces

# — US9006394B2, “Peptide-presenting surfaces for long-term culture of pluripotent cells” (Wisconsin Alumni Research Foundation, priority 2008, dated 2015)
